Measurements taken from patent publication EP0393529A1, “5,11-dihydro-6H-dipyrido [3,2-b:2',3'-e][1,4]diazepin-6-ones and their use in the prevention or treatment of AIDS” (Boehringer Ingelheim Pharmaceuticals Inc., priority 1989, dated 1990).
Where two headings read alike, the source gives them in different places.

Legend:
[1] = biological target: T1, HIV-1 reverse transcriptase (Human immunodeficiency virus type 1 group M subtype B, UniProt P03367); experiment: Reverse Transcriptase (RT) Assay (RNA-dependent DNA polymerase activity, cell-free, 3H-dGTP incorporation); assay type: biochemical; details: read-out: RT Inhibition % @ 10µg/ml
T1 construct: Reverse transcriptase enzyme from the LAV strain; made in house; host or cells: E. coli strain JM109, clone pBRTprt1+ in vector pIBI21 (lac promoter)
Experimental: After removal of the insoluble debris by centrifugation, the protein is precipitated by the addition of 3 volumes of saturated aqueous ammonium sulfate.
The 2X concentrated stock reaction mixture is aliquoted and stored at -20°C. […] This enzyme assay has been adapted to a 96 well microtiter plate system, and has been previously described (6). […] Twenty µl of 0.12-0.5M EDTA are added to the first three wells of the microtiter plate.
This group serves as background polymerization which is subtracted from all other groups. Twenty-five µl of the 2X reaction mixture are added to all wells and the assay is allowed to incubate at room temperature for 60 minutes. […] The microtiter plate is incubated for 15 minutes at 4°C and the precipitate is fixed onto #30 glass fiber paper (Schleicher & Schuell) using a Skatron semi-automatic harvester. […] Each vial receives 2 mls of scintillation cocktail and is counted in a Beckman beta counter.

[2] = system: HTLV-IIIB strain of HIV-1; experiment: Human T-Cell Culture Assay (syncytia formation in C8166 cells); assay type: cell-based; details: Human immunodeficiency virus 1, IIIB, 96 h, syncytia read four days after virus challenge, read-out: T-Cell Culture Assay(IC₅₀)
Experimental: In order to confirm that compounds which are active in the RT Assay also have the ability to inhibit HIV replication in a living system, compounds according to the invention were also tested in the human T-Cell Culture Assay described below.
Assay Theory: Formation of syncytia is a feature of in vitro cultures of CD4+ T-cells infected with HIV-1. In this assay, T-cells are treated with a putative replication inhibiting compound and then infected with HIV-1. After incubation the culture is checked for the formation of syncytia. The absence or reduction is the number of syncytia is used as a measure of the test compound's ability to inhibit HIV replication.
Assay Method: The target cells, designated C8166, are a subclone of human lymphoma cells of T-cell origin and are established at an initial density of 5x10⁴ per 100 ul in RPMI 1640 (+ 10% fetal bovine serum) culture medium in 96 well flat bottom plates. A selected amount of test compound, dissolved in DMSO is included. After 24 hours, 50-100 TCID50's (the dose that results in induced effect in 50% of test cultures) of the HTLV-IIIB strain of HIV-1 (2) are innoculated into each culture. Control cultures receive compound or virus only. […] The percent inhibition by the test compound is determined by comparison with control values. […]

Row | inhibition at 10 µg/mL ([1]; 10µg/ml compound) | IC50 [2] | inhibition at 10 µg/mL [1] | Structure (SMILES)
1 | 94% | – | – | CCCN1c2ncccc2NC(=O)c2cccnc21 [Example 2, 5,11-Dihydro-11-propyl-6H-dipyrido[3,2-b:2′,3′-e][1,4]diazepin-6-one]
2 | 94% | – | – | CCCN1c2ncccc2C(=O)N(C)c2cccnc21 [Example 3, 5,11-Dihydro-5-methyl-11-propyl-6H-dipyrido[3,2-b:2′,3′-e][1,4]diazepin-6-one]
3 | 98% | 190 µM | – | CCN1C(=O)c2cccnc2N(CC)c2ncccc21 [Example 4, 5,11-Diethyl-5,11-dihydro-6H-dipyrido[3,2-b:2′,3′-e][1,4]diazepin-6-one]
4 | – | – | 100% | CCN1c2ncccc2C(=O)N(C)c2cccnc21 [Example 8, 5,11-Dihydro-11-ethyl-5-methyl-6H-dipyrido[3,2-b:2′,3′-e][1,4]diazepin-6-one]
